Laboratory results published in article PMC5955799 (ACS chemical neuroscience, 2018).
Numbered stars: 1 amine (or outer) side, 2 acyl side, 3 side chain; on linkers, the order of the positions; unused ones are H or OH. Square brackets hold non-standard residues; d marks the D form. Peptide text beside a SMILES is read from it. X1 = C#Cc1cccc(-c2cn(C[C@H](N[*:1])C(=O)[*:2])nn2)c1; X2 = C#Cc1cccc(-c2cnnn2C[C@H](N[*:1])C(=O)[*:2])c1

What was measured:
mMC4R = mMC4R (Mus musculus, UniProt P56450); test: AlphaScreen cAMP agonist assay in HEK293 cells stably expressing mMC4R; conditions: for Fold diff (mMC4R): decrease in agonist potency compared to peptide 1
Chain of mMC4R (P56450 whole entry): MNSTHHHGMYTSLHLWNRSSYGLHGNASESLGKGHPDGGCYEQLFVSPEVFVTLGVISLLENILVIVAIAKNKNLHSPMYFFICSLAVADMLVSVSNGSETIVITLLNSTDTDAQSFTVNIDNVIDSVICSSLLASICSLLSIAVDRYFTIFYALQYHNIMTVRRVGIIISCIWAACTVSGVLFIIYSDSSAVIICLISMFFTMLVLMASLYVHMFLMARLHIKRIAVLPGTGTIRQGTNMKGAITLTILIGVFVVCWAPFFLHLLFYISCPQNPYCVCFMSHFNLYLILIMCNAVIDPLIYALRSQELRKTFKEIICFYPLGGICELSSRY

mMC5R = mMC5R (Mus musculus, UniProt P41149); test: AlphaScreen cAMP agonist assay in HEK293 cells stably expressing mMC5R; conditions: for Fold diff (mMC5R): decrease in agonist potency compared to peptide 1
Chain of mMC5R (P41149 whole entry): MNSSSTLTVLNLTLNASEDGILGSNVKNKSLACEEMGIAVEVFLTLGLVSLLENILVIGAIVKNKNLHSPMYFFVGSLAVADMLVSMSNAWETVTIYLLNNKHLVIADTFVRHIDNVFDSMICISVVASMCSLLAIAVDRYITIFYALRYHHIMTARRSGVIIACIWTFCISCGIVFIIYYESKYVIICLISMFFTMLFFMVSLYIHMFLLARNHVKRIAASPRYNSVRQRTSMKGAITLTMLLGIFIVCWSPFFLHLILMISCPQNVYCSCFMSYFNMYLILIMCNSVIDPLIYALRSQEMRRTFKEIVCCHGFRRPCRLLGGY

mMC3R = mMC3R (Mus musculus, UniProt P33033); test: AlphaScreen cAMP agonist assay in HEK293 cells stably expressing mMC3R; conditions: for Fold diff (mMC3R): decrease in agonist potency compared to peptide 1
Chain of mMC3R (P33033 whole entry): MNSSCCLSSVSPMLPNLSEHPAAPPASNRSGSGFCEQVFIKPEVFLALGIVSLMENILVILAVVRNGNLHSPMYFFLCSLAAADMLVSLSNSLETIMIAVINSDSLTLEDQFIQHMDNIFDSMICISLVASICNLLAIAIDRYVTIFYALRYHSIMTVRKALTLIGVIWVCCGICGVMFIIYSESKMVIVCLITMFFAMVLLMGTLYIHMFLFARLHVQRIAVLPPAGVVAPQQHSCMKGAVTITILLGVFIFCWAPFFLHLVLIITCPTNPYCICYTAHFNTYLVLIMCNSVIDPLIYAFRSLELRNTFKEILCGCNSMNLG

mMC1R = mMC1R (Mus musculus, UniProt Q01727); test: AlphaScreen cAMP agonist assay in HEK293 cells stably expressing mMC1R; conditions: for Fold diff (mMC1R): decrease in agonist potency compared to peptide 1
Chain of mMC1R (Q01727 whole entry): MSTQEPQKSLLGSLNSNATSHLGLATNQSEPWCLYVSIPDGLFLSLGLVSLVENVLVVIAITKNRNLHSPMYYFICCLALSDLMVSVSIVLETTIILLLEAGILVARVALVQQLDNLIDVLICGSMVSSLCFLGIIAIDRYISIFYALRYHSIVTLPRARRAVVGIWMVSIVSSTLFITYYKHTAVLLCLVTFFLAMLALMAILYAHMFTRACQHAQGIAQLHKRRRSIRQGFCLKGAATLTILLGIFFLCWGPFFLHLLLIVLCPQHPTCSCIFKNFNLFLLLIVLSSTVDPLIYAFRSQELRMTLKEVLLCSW

SMILES | EC50 (mMC4R) | EC50 (mMC5R) | EC50 (mMC3R) | EC50 (mMC1R) | Fold diff (mMC4R) (mMC4R) | Fold diff (mMC5R) (mMC5R) | Fold diff (mMC3R) (mMC3R) | Fold diff (mMC1R) (mMC1R)
C[C@@H]1NC(=O)[C@H](CC(N)=O)NC(=O)[C@H](Cc2c[nH]c3ccccc23)NC(=O)[C@H](CCCN=C(N)N)NC(=O)[C@@H](Cc2ccccc2)NC(=O)[C@H](Cc2cnc[nH]2)NC(=O)[C@@H](NC(=O)[C@@H](N)Cc2ccc(O)cc2)CSSC[C@@H](C(=O)N[C@@H](Cc2ccc(O)cc2)C(N)=O)NC(=O)[C@H](Cc2ccccc2)NC1=O [Peptide 1, Tyr-c[Cys-His-DPhe-Arg-Trp-Asn-Ala-Phe-Cys]-Tyr-NH2, reference compound] | 0.00043 ± 0.00013 µM | 0.0024 ± 0.00031 µM | 0.0022 ± 0.00058 µM | 0.00014 ± 1e-05 µM | – | – | – | –
C#Cc1cccc(-c2cn(C[C@H](NC(=O)[C@H](Cc3ccccc3)NC(=O)[C@H](C)NC(=O)[C@H](CC(N)=O)NC(=O)[C@H](Cc3c[nH]c4ccccc34)NC(=O)[C@H](CCCNC(=N)N)NC(=O)[C@@H](Cc3ccccc3)NC(=O)[C@H](Cc3c[nH]cn3)NC(=O)[C@H](Cn3cc(-c4cccc(C#C)c4)nn3)NC(=O)[C@@H](N)Cc3ccc(O)cc3)C(=O)N[C@@H](Cc3ccc(O)cc3)C(N)=O)nn2)c1 [Peptide 9] (H-Y[X1]H[dF]RWNAF[X1]Y-NH2) | 1.52 ± 0.328 µM | 0.294 ± 0.0048 µM | 1.46 ± 0.245 µM | 0.802 ± 0.227 µM | 3540 fold | 122 fold | 665 fold | 5728 fold
C#Cc1cccc(-c2cnnn2C[C@H](NC(=O)[C@H](Cc2ccccc2)NC(=O)[C@H](C)NC(=O)[C@H](CC(N)=O)NC(=O)[C@H](Cc2c[nH]c3ccccc23)NC(=O)[C@H](CCCNC(=N)N)NC(=O)[C@@H](Cc2ccccc2)NC(=O)[C@H](Cc2c[nH]cn2)NC(=O)[C@H](Cn2nncc2-c2cccc(C#C)c2)NC(=O)[C@@H](N)Cc2ccc(O)cc2)C(=O)N[C@@H](Cc2ccc(O)cc2)C(N)=O)c1 [Peptide 12] (H-Y[X2]H[dF]RWNAF[X2]Y-NH2) | 0.142 ± 0.03 µM | 0.107 ± 0.017 µM | 0.404 ± 0.052 µM | 0.116 ± 0.04 µM | 330 fold | 45 fold | 184 fold | 829 fold
